{"source": "patent US9463338B2", "about": "“Derivatives of the sinapinic acid” (PHARMASYNTHESE, priority 2013, dated 2016)", "key": {"[1]": {"tested_on": "explants of adipose tissues", "experiment": "Slimming effect: glycerol released in culture medium of adipose tissue explants", "type": "cell-based, human", "details": "for Glycerol Average: glycerol released in culture medium after 9 days, 100 μl of 2% product in DMSO in 2 ml medium on J0, J2, J3, J5, J7, 3 explants", "protocol": "The activity of the compounds of the invention on the adipocytes has been assessed. To do so, tests have been carried out on explants of adipose tissues that are kept alive according to the following experimental protocol. The products to be tested are introduced in the culture medium. After 9 days of treatment, the activity is assessed through an assay of the glycerol released in the culture medium. In order to be able to compare the potential activity of the molecules, caffeine (Sigma ref C-0750 batch 127F0396), which is known for its activity on the adipocytes (Studlar M. […] The explants are prepared from a tummy tuck ([…]-AB-40) carried out on a donor. 54 explants of tissues have been prepared and kept alive in a medium which is supplemented with penicillin/streptomycin antibiotics (Gibco ref 15140 batch 918578) at 37° C. and with 5% of CO2. The treatment has been carried out, on 3 explants, by incorporating 100 μl of the product (which is in turn at a 2% concentration in the adequate solvent, DMSO) in 2 ml of the culture medium on days J0, J2, J3, J5 and J7. Caffeine has been diluted to the desired concentration in the culture medium on these same days. The control explants have undergone no treatment. On J0, the 3 explants have been collected and frozen at -80° C. On J9, the remaining explants have been collected and preserved under the same conditions. The extraction of lipids from the culture medium has been carried out according to a tested procedure. The assay of the glycerol of the culture medium has been carried out using a glycerol assay kit (Megazyme, K-GROL) in the form of 96-well microplates and reading has been made at 340 nm with a Tecam Infinite M200 microplate reader associated to the Magellan software."}, "[2]": {"tested_on": "normal human dermal fibroblasts", "experiment": "Production of type I pro-collagen in monolayer cultures of normal human dermal fibroblasts (E.I.A.)", "type": "cell-based", "details": "48 hours; for Procollagen Difference (%): vs DMSO", "protocol": "(§1) The test system consists of monolayers of adult normal human dermal fibroblasts obtained by cultivating cells collected from a tummy tuck carried out on a person.\nThe used reference activator is the Transforming Growth Factor β (TGF-β) at 1 ng/ml. […]\n(§2) The compound to be tested is solubilized in 1 mg/ml in DMSO, then diluted in the cells incubation medium, with a constant concentration of 0.1% (v/v) in DMSO.\nUpon completion of the incubation period, the type I pro-collagen contained in the fibroblasts incubation media has been quantified using a sensitive and specific E.I.A. kit.\nUpon completion of the incubation period, the proteins contained in the cellular lysates have been quantified by a spectrophotometric method (Bradford method—Bradford M. (1976) Anal. Biochem., 72, 248-254).\n(§3) The statistical significance of the differences that have been observed between the <<Control>> and the <<reference product>> conditions, has been assessed through a Student test. The statistical significance of the differences that have been observed between the <<Check>> and the <<test products>> conditions, has been assessed through a one-way analysis of variance (One Way ANOVA) followed by a Holm-Sidak test (*:p<0.05).\nThe results are given in the form of μg of type I pro-collagen per mg of protein (average+/− the standard deviation, S.D.) and are reported in the following Table 5."}, "normal human melanocytes": {"tested_on": "normal human melanocytes", "experiment": "Melanin production of normal human melanocytes (conditioned fibroblast media)", "type": "cell-based", "details": "for Melanin/Proteins, individual values: conditioned medium 1/10th on melanocytes 72 hours; for Melanin/Proteins % DMSO / Melanin/Proteins Average: conditioned fibroblast medium, melanocytes 72 hours; for Melanin/Proteins Difference (%): vs DMSO 0.01%", "from_the_text": "These experiments allowed to show the capability of the compounds of the invention to modulate the melanin production of normal human melanocytes cultivated in D.K.K. fibroblast monolayers.\nMonolayers of normal human dermal fibroblasts have been obtained by cultivating cells collected from a tummy tuck carried out on a person. For carrying out the tests, these cells have been cultivated until obtaining confluent monolayers. Monolayers of normal human melanocytes have been obtained by cultivating cells collected from a tummy tuck carried out on a person. For carrying out the tests, these cells have been cultivated until obtaining non-confluent monolayers. […]\nAfterwards, the melanocytes have been incubated for 72 hours at 37° C. in a humid atmosphere with 5% of CO2, in the absence (culture medium alone) or in the presence of kojic acid at 250 μM or of conditioned fibroblast media (see above) diluted to 1/10th in the culture medium of the melanocytes.\nThe active ingredient has been solubilized in DMSO (Dimethyl Sulfoxide). Afterwards, the dilutions have been carried out in the cells incubation medium with a constant concentration of 0.01% (v/v) of DMSO.\nUpon completion of the incubation period, the intracellular melanin content has been quantified in the melanocytic lysates by a spectrophotometric measurement at 405 nm.\nUpon completion of the incubation period, the proteins contained in the cellular lysates have been quantified by a spectrophotometric method (Bradford method).\nThe results are given in the form of μg of intracellular melanin per mg of total proteins of the cellular layer (averages+/− the standard deviation, S.D.).\nThe statistical significance of the differences observed between the <<Control>> and the <<test product>> conditions, has been assessed through a one-way analysis of variance (One Way ANOVA) followed by a Holm-Sidak test (*:p<0.05)."}, "[3]": {"tested_on": "normal human dermal fibroblasts", "experiment": "Production of progerin in monolayer cultures of normal human dermal fibroblasts (ELISA)", "type": "cell-based", "details": "for Progerin % DMSO / Progerin Average / Progerin, individual values / Progerin Difference (%): 96 hours; for Progerin Difference (%): vs DMSO", "from_the_text": "In order to study the influence of the compounds of the invention on the concentration of progerin in the cells, the assay method described by C. Verdy, J.-E. Branka and N. Mekideche in <<Quantitative assessment of lactate and progerine production in normal human cutaneous cells during normal ageing: effect of an alaria esculenta extract>>, Int. J. Cosmetic Science, 2011, 1-5, has been used.\nas §1\nInsulin at 10 nM has been used as a reference product in this study. […]\nas §2\nUpon completion of the incubation period, on the one hand, the progerin has been quantified in the cellular lysates (obtained by ultrasonic action) through a sensitive and specific ELISA assay, and on the other hand, the proteins that are contained in the cellular lysates have been quantified by a spectrophotometric method (Bradford method—Bradford M. (1976) Anal. Biochem., 72, 248-254).\nas §3"}}, "note": "Several values for one entry are separate records, joined by “and”; a condition that tells them apart may be missing. Equal entries are not always repeated. Marks after values point to notes of the source that are not given here.", "data": [{"smiles": "CCCCCCCCCCCCCCCCOC(=O)/C=C/c1cc(OC)c(OC(C)=O)c(OC)c1", "note": "[Compound 4, 4-acetoxy-3,5-dimethoxy cinnamate of n-hexadecyl]", "values": [{"measurement": "melting point", "value": 82, "unit": "°C"}]}, {"smiles": "COc1cc(COC(=O)/C=C/c2cc(OC)c(OC(C)=O)c(OC)c2)cc(OC)c1OC", "note": "[Compound 5]", "values": [{"measurement": "Glycerol % in comparison with caffeine", "setting": "[1]; after 9 days of treatment", "value": 82, "unit": "%"}, {"measurement": "slimming activity in comparison with caffeine", "setting": "[1]; after 9 days of treatment", "value": "enhanced slimming activity"}, {"measurement": "Glycerol Average", "setting": "[1]", "value": 0.083, "unit": "mg/mL"}, {"measurement": "Procollagen % DMSO", "setting": "[2]; 10 ng/ml", "value": 75.7, "unit": "%"}, {"measurement": "Procollagen Average", "setting": "[2]; 10 ng/ml", "value": "39.7* pg/mg of protein"}, {"measurement": "Procollagen, individual values", "setting": "[2]; 10 ng/ml", "value": "45.3 pg/mg of protein and 37.0 pg/mg of protein and 36.8 pg/mg of protein"}, {"measurement": "Procollagen Difference (%)", "setting": "[2]; 10 ng/ml", "value": "−24.3", "unit": "%"}, {"measurement": "Procollagen % DMSO", "setting": "[2]; 100 ng/ml", "value": 96.3, "unit": "%"}, {"measurement": "Procollagen Average", "setting": "[2]; 100 ng/ml", "value": "50.5 pg/mg of protein"}, {"measurement": "Procollagen, individual values", "setting": "[2]; 100 ng/ml", "value": "53.0 pg/mg of protein and 52.3 pg/mg of protein and 46.3 pg/mg of protein"}, {"measurement": "Procollagen Difference (%)", "setting": "[2]; 100 ng/ml", "value": "−3.7", "unit": "%"}, {"measurement": "Procollagen % DMSO", "setting": "[2]; 500 ng/ml", "value": 126.9, "unit": "%"}, {"measurement": "Procollagen Average", "setting": "[2]; 500 ng/ml", "value": "66.6* pg/mg of protein"}, {"measurement": "Procollagen, individual values", "setting": "[2]; 500 ng/ml", "value": "66.1 pg/mg of protein and 62.3 pg/mg of protein and 71.4 pg/mg of protein"}, {"measurement": "Procollagen Difference (%)", "setting": "[2]; 500 ng/ml", "value": 26.9, "unit": "%"}, {"measurement": "synthesis of melanin in the melanocytes", "setting": "normal human melanocytes", "value": "significantly decrease"}, {"measurement": "Melanin/Proteins, individual values", "setting": "normal human melanocytes; 10 ng/ml on fibroblasts 48 hours", "value": "14.2 µg/mg and 11.7 µg/mg and 13.7 µg/mg"}, {"measurement": "Melanin/Proteins % DMSO", "setting": "normal human melanocytes; 10 ng/ml", "value": 83.0, "unit": "%"}, {"measurement": "Melanin/Proteins Average", "setting": "normal human melanocytes; 10 ng/ml", "value": "14.3* μg/mg"}, {"measurement": "Melanin/Proteins Difference (%)", "setting": "normal human melanocytes; 10 ng/ml", "value": "−17.0", "unit": "%"}, {"measurement": "Melanin/Proteins, individual values", "setting": "normal human melanocytes; 50 ng/ml on fibroblasts 48 hours", "value": "14.3 μg/mg and 14.7 μg/mg (2×)"}, {"measurement": "Melanin/Proteins % DMSO", "setting": "normal human melanocytes; 50 ng/ml", "value": 83.6, "unit": "%"}, {"measurement": "Melanin/Proteins Average", "setting": "normal human melanocytes; 50 ng/ml", "value": "14.4* μg/mg"}, {"measurement": "Melanin/Proteins Difference (%)", "setting": "normal human melanocytes; 50 ng/ml", "value": "−16.4", "unit": "%"}, {"measurement": "Melanin/Proteins, individual values", "setting": "normal human melanocytes; 100 ng/ml on fibroblasts 48 hours", "value": "15.8 µg/mg and 16.7 µg/mg and 16.0 µg/mg"}, {"measurement": "Melanin/Proteins % DMSO", "setting": "normal human melanocytes; 100 ng/ml", "value": 93.7, "unit": "%"}, {"measurement": "Melanin/Proteins Average", "setting": "normal human melanocytes; 100 ng/ml", "value": 16.2, "unit": "µg/mg"}, {"measurement": "Melanin/Proteins Difference (%)", "setting": "normal human melanocytes; 100 ng/ml", "value": "−6.3", "unit": "%"}, {"measurement": "Progerin % DMSO", "setting": "[3]; 10 ng/ml", "value": 27.6, "unit": "%"}, {"measurement": "Progerin Average", "setting": "[3]; 10 ng/ml", "value": "306.4* ng/mg of protein"}, {"measurement": "Progerin, individual values", "setting": "[3]; 10 ng/ml", "value": "284.0 ng/mg of protein and 243.7 ng/mg of protein and 391.4 ng/mg of protein"}, {"measurement": "Progerin Difference (%)", "setting": "[3]; 10 ng/ml", "value": "−72.4", "unit": "%"}, {"measurement": "Progerin % DMSO", "setting": "[3]; 100 ng/ml", "value": 29.1, "unit": "%"}, {"measurement": "Progerin Average", "setting": "[3]; 100 ng/ml", "value": "322.9* ng/mg of protein"}, {"measurement": "Progerin, individual values", "setting": "[3]; 100 ng/ml", "value": "206.0 ng/mg of protein and 364.1 ng/mg of protein and 398.6 ng/mg of protein"}, {"measurement": "Progerin Difference (%)", "setting": "[3]; 100 ng/ml", "value": "−70.9", "unit": "%"}, {"measurement": "Progerin % DMSO", "setting": "[3]; 500 ng/ml", "value": 77.9, "unit": "%"}, {"measurement": "Progerin Average", "setting": "[3]; 500 ng/ml", "value": "865.0 ng/mg of protein"}, {"measurement": "Progerin, individual values", "setting": "[3]; 500 ng/ml", "value": "916.2 ng/mg of protein and 1021.7 ng/mg of protein and 657.0 ng/mg of protein"}, {"measurement": "Progerin Difference (%)", "setting": "[3]; 500 ng/ml", "value": "−22.1", "unit": "%"}, {"measurement": "neo synthesis of progerin", "setting": "[3]; under the retained experimental conditions", "value": "significantly decrease"}]}, {"smiles": "COc1cc(/C=C/C(=O)Nc2ccccc2)cc(OC)c1OC(C)=O", "note": "[Compound 19, 4-acetoxy-3,5-dimethoxy-N-(phenyl)-cinnamamide]", "values": [{"measurement": "melting point", "value": 100, "unit": "°C"}]}, {"smiles": "Cn1c(=O)c2c(ncn2C)n(C)c1=O", "note": "[Caffeine, caffeine, reference compound]", "values": [{"measurement": "Glycerol % in comparison with caffeine", "setting": "[1]; after 9 days of treatment", "value": 100, "unit": "%"}, {"measurement": "Glycerol Average", "setting": "[1]", "value": 0.096, "unit": "mg/mL"}]}]}
